Series [1] concerns TLR7-mediated NF-κB activation in Raw-Blue reporter cells. The experiment in a line: Raw-Blue NF-κB/SEAP reporter stimulation with TLR7 ligands. Type of series: cell-based, murine. The settings on record: for IMQ-induced NF-κB activation (SEAP) in the presence of the ODN: 2 μM IMQ + 1 μM ODN, FBS-supplemented medium. The protocol: (§1) HEK-Blue™-mTLR7, mTLR8, hTLR7, hTLR8, and RAW-Blue™ cells were purchased from InvivoGen and were used to evaluate bioactivities of lipo ODNs and TLR 7/8 ligands in vitro. All these cell lines were cultured with DMEM supplemented with 10% FBS, 1% P/S and 100 μg/mL Normocin at 37° C. with 5% CO2. […] After incubating for 24 h, SEAP levels were quantified by developing supernatants with QuantiBlue™ substrate for 1 h and reading absorption at 620 nm, following manufacturer's instructions.
Following subcutaneous injection, lipid-modified oligonucleotides efficiently accumulated in the draining lymph nodes by binding and trafficking with endogenous albumin protein (Liu et al., Nature 507, 519-522, 2014; Yu et al., Pharmaceutical Res. 35: 56, 2018). Inspired by that prior work, the current study was aimed to take advantage of lipid functionalization in other oligonucleotide-based TLR inhibitors to further expand the pool of lipo suppressive ODNs. The therapeutic efficacy of lipid-modified IRS 954 in suppressing TLR7-mediated immune activation and alleviating the severity of SLE was investigated. Imiquimod (IMQ; FIG. 1A) was first used to stimulate TLR7-mediated immune activation in Raw-Blue reporter cells. For the initial experiments, Raw Blue cells-a murine RAW 264.7 macrophage cell line which expresses secreted embryonic alkaline phosphatase (SEAP) under the control of an NF-κB and AP-1, were used. Raw Blue cells express many toll-like receptors, including TLR-7, TLR-8, and TLR-9. The immunosuppressive capability of unmodified or lipo IRS 954 was determined by quantifying the level of TLR7-induced NF-κB activation.

The target of another series is T1, human TLR8 (hTLR8) (Homo sapiens, UniProt Q9NR97).
T1 construct: host or cells: HEK-Blue-hTLR8 (HEK293)
T1 sequence (Q9NR97 27-1041): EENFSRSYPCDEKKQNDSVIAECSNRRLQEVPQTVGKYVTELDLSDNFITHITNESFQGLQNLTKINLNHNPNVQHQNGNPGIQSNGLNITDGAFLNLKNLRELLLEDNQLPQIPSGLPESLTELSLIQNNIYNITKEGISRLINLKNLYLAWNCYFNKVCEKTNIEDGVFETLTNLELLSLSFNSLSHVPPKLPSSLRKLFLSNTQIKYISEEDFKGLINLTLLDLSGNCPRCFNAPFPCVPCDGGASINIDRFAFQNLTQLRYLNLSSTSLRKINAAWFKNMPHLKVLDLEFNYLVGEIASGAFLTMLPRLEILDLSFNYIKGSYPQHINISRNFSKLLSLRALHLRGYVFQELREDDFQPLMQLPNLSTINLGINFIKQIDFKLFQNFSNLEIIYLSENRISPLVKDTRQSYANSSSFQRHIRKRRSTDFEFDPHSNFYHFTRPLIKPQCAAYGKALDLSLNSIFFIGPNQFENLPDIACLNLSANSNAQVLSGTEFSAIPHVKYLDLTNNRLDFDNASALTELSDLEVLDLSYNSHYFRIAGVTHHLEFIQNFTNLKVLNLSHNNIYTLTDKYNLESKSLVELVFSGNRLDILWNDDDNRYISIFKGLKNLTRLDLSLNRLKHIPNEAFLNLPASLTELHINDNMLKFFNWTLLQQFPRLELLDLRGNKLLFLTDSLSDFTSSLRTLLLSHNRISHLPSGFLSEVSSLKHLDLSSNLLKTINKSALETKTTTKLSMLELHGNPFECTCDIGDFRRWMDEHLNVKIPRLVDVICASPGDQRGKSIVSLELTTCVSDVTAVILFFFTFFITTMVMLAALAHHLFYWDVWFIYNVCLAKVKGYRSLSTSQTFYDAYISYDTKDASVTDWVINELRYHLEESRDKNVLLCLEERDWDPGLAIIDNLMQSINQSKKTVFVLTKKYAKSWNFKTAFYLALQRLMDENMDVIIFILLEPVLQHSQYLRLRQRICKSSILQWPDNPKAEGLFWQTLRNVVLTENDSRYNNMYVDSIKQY
Kind of series: HEK hTLR8 reporter cells NF-κB/SEAP. Format: cell-based. The settings on record: 1 μg/ml or indicated concentrations TLR8-506 + 1 μM ODN, 24 h. The protocol:
as §1
(§2) HEK293 cells transfected with human TLR7 or 8 were used. The cells were stimulated with IMQ in the presence of several inhibitory oligonucleotides reported in the literature. […] In contrast, all the unmodified ODNs maintained their inhibitory function, reducing the NF-κB secretion to basal levels (FIG. 8A). We then plotted the IMQ dose response curve in human TLR-7 transfected HEK293 cells.

Another series deals with T2, human TLR7 (hTLR7) (Homo sapiens, UniProt Q9NYK1).
T2 construct: host or cells: HEK-Blue-hTLR7 (HEK293)
T2 sequence (Q9NYK1 27-1049): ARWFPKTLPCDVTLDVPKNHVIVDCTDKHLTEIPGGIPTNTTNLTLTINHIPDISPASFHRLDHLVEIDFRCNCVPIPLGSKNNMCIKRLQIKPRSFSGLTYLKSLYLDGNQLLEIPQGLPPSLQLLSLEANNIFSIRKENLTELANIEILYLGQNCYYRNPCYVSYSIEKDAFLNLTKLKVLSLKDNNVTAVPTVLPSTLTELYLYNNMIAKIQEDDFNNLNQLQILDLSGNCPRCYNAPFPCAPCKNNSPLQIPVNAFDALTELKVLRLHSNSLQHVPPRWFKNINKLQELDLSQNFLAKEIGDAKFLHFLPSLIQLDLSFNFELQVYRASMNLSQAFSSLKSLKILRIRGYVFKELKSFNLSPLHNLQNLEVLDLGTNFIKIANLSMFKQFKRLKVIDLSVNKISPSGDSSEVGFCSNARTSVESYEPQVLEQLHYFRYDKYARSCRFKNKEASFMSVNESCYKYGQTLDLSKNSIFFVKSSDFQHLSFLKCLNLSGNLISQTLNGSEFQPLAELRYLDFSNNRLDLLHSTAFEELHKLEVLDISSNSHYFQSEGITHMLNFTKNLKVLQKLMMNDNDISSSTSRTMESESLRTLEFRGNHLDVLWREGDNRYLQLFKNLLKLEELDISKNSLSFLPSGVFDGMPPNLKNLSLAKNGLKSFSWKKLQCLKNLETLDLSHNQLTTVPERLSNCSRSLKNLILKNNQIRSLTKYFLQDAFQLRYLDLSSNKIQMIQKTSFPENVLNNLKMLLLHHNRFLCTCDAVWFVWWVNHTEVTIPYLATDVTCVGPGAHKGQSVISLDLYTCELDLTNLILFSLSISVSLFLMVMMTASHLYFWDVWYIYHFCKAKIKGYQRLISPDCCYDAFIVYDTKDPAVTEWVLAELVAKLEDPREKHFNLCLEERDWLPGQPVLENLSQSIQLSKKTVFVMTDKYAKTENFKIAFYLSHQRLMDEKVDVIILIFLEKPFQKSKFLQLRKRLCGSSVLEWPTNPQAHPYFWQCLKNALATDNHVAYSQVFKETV
Kind of series: HEK hTLR7 reporter cells NF-κB/SEAP. Type of series: cell-based. The settings on record: 2 μM IMQ + 1 μM ODN, 24 h. On the procedure:
as §1, §2

The target of the next series is T3, mouse TLR7 (mTLR7) (Mus musculus, UniProt P58681).
T3 construct: host or cells: HEK-Blue-mTLR7 (HEK293)
T3 sequence (P58681 27-1050): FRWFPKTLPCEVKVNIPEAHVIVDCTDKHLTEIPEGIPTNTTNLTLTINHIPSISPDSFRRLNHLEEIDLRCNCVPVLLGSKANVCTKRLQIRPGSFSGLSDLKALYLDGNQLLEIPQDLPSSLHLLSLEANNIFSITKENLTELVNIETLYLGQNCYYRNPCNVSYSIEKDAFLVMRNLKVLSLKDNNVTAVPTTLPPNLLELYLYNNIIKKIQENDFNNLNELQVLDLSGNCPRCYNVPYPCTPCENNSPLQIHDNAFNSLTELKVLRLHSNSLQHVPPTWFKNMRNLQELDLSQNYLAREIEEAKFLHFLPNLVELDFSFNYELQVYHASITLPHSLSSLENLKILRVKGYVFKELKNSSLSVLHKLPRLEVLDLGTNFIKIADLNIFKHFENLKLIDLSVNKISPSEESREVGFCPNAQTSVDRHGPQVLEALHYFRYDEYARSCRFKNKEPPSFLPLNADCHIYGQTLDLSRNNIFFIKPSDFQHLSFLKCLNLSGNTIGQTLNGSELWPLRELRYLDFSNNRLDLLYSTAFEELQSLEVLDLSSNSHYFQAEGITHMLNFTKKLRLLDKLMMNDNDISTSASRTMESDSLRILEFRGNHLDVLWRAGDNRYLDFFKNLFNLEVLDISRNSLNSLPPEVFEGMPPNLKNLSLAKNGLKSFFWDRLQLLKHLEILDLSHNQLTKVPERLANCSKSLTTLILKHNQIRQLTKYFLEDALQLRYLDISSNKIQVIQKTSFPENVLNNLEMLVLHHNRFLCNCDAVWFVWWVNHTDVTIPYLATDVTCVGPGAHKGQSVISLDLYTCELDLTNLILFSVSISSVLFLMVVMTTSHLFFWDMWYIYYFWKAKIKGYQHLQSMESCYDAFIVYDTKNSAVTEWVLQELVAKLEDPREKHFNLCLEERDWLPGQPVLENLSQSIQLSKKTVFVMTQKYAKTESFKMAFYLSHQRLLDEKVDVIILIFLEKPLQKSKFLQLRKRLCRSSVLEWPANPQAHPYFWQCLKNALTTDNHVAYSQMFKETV
Kind of series: HEK mTLR7 reporter cells NF-κB/SEAP. Format: cell-based. The settings on record: soluble ligand alone, 24 h. On the procedure: as §1
Raw Blue cells which respond to both murine TLR-7 and TLR-8 are also included to assess the overall modulatory effect. half-maximal effective concentration (EC50) and potency of several classic TLR7/8 ligands were evaluated in murine TLR7 and TLR8 reporter cells.

Entries after “also recorded” stand apart in the source; their conditions may differ. Oligonucleotides are written 5' to 3', each unit as a sugar letter and its base; * is a phosphorothioate linkage, no mark a phosphodiester; rarer units and linkages stand in square brackets, end groups in braces. Plain capitals give the bases only. {Lipid} = lipid portion of the amphiphilic conjugate (lipid variable, as described in specification); d = 2'-deoxy (DNA)

Take “5′-L-TGCTCCTGGAGGGGTTGT-3′ (DNA NTGCTCCTGGAGGGGTTGT; 5' lipid modification; Lipid-modified synthetic oligonucleotide; (1)..(1) n=placeholder indicative of lipid portion of conjugate, as described in specification; lipid is variable, depending on embodiment(s)) [lipo IRS 954]”: the “IMQ-induced NF-κB activation (SEAP) in the presence of the ODN” value in series [1] (24 h) is listed as “enhanced TLR7-mediated activation; also recorded: more than twofold increase in TLR-7-mediated activation”. In addition, the “activity of the ODN alone in Raw Blue cells” value in series [1] (without IMQ) is reported as “no activity”. For the same compound, in the series with human TLR8 (hTLR8), the “TLR8-506 stimulation of hTLR8 cells in the presence of the ODN” value is “partially inhibited the TLR-8 signaling”. Moreover, the “IMQ-mediated NF-κB stimulation in hTLR7 cells in the presence of the ODN” value in the series with human TLR7 (hTLR7) is “markedly enhanced IMQ-mediated NF-κB stimulation”.
On to “5′-TGCTCCTGGAGGGGTTGT-3′ (DNA dT*dG*dC*dT*dC*dC*dT*dG*dG*dA*dG*dG*dG*dG*dT*dT*dG*dT) [IRS 954]”, for which the “IMQ-induced NF-κB activation (SEAP) in the presence of the ODN” value in series [1] (24 h) is given as “no detectable NF-κB was observed”.
In the case of `CC(C)Cn1cnc2c(N)nc3ccccc3c21` [IMQ, imiquimod], the “NF-κB activation of Raw Blue cells by the ligand alone” value in series [1] (ligand alone, 24 h) is listed as “resulted in secretion of NF-κB”. For the same compound, on mouse TLR7 (mTLR7), the “mTLR7 activation by the ligand alone” value is “activated mTLR-7 at different concentrations”.
On to “lipo ODN 2087: lipid modified ODN 2087 (5′-TCCTGAGCTTGAAGT-3′) (DNA {Lipid}-dT*dC*dC*dT*dG*dA*dG*dC*dT*dT*dG*dA*dA*dG*dT)”, for which, in the series with human TLR8 (hTLR8), the “TLR8-506 stimulation of hTLR8 cells in the presence of the ODN” value was “partially inhibited the TLR-8 signaling”. The “IMQ-mediated NF-κB stimulation in hTLR7 cells in the presence of the ODN” value in the series with human TLR7 (hTLR7) is listed as “markedly enhanced IMQ-mediated NF-κB stimulation”.

The values above are taken from patent publication US11504425B2, “Amphiphilic oligodeoxynucleotide conjugates as adjuvant enhancers” (WAYNE STATE UNIVERSITY, priority 2019, dated 2022).
